Data on 6 compounds can be found in publication PMC5059758, “Structural characterization of antibiotic self-immunity tRNA synthetase in plant tumour biocontrol agent” (Nature Communications, 2016).

In series [1] the target is T1, wt AgnB2 (LeuRS) (Agrobacterium radiobacter, UniProt B9JQP8). As to the kind of experiment: ATP/PPi exchange assay (amino acid activation), AgnB2. Conditions: 28 °C, pH 7.4.
Protocol: The formation of Leu-AMP by ATP/PPi exchange assays was performed as described earlier[23][50]. Briefly, the reaction buffer contained 50 mM HEPES buffer (pH 7.4), 20 mM KCl, 10 mM MgCl2, 500 μM L-leucine, 4 mM ATP, 1 mM tetrasodium pyrophosphate (NaPPi), 10 μCi/mmol [^32P] NaPPi and 1 μM bovine serum albumin (BSA). The reaction was initiated by addition of 1–4 nM of active enzyme and incubated at 28 °C. Aliquots (5 μl each) were collected over 30 min and quenched in a 10% charcoal slurry containing 0.5% HCl and 50 μl of 200 mM sodium pyrophosphate in 1 M HCl. Liquid scintillation counting was then used to measure the amount of [^32P]-PPi incorporation into ATP that was adsorbed onto the charcoal.
The target of series [2] is T2, LeuRSAt (Agrobacterium tumefaciens, UniProt Q8UBV2). Put plainly: ATP/PPi exchange assay (amino acid activation), LeuRSAt. The class given is biochemical, A. tumefaciens. Conditions: 28 °C, pH 7.4. On the procedure: (§1) The formation of Leu-AMP by ATP/PPi exchange assays was performed as described earlier. Briefly, the reaction buffer contained 50 mM HEPES buffer (pH 7.4), 20 mM KCl, 10 mM MgCl2, 500 μM L-leucine, 4 mM ATP, 1 mM tetrasodium pyrophosphate (NaPPi), 10 μCi/mmol [^32P] NaPPi and 1 μM bovine serum albumin (BSA). The reaction was initiated by addition of 1–4 nM of active enzyme and incubated at 28 °C. Aliquots (5 μl each) were collected over 30 min and quenched in a 10% charcoal slurry containing 0.5% HCl and 50 μl of 200 mM sodium pyrophosphate in 1 M HCl. Liquid scintillation counting was then used to measure the amount of [^32P]-PPi incorporation into ATP that was adsorbed onto the charcoal.
T2 sequence (Q8UBV2 whole entry): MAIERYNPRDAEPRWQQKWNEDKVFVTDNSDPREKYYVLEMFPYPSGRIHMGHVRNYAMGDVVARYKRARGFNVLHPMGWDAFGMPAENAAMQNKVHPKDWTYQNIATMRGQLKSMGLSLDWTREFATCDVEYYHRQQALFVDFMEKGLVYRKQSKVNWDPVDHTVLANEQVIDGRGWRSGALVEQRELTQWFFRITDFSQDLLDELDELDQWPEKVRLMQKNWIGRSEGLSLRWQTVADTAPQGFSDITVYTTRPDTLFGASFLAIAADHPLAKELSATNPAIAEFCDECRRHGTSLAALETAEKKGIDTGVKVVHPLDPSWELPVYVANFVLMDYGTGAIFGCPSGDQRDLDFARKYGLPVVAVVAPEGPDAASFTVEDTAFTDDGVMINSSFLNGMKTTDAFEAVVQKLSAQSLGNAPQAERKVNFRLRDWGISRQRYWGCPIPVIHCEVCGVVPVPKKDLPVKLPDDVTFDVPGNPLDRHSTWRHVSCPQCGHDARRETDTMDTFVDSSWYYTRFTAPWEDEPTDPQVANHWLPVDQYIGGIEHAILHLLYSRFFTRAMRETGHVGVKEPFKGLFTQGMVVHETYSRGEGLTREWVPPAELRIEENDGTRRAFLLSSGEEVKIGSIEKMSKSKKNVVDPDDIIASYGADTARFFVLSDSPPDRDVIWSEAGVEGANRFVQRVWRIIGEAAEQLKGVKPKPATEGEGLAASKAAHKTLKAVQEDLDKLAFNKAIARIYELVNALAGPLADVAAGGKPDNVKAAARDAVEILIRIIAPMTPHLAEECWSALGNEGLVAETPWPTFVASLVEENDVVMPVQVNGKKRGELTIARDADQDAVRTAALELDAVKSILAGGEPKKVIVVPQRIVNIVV

The test system of series [3] is LeuRSAt (leucyl-tRNA synthetase). Conditions: aminoacylation, substrate, 28 °C, pH 7.4; cited from earlier work.
In series [4] the target is T1, wt AgnB2 (LeuRS). Put plainly: Aminoacylation assay, wt AgnB2. Conditions: pH 7.4.
Protocol: Aminoacylation activities of AgnB2, LeuRSAt and their mutants were measured in 50 mM HEPES buffer (pH 7.4) containing 20 mM KCl, 25 mM MgCl2, 25 mM β-ME, 4 mM ATP, 500 μM [3,4,5-^3H] L-leucine (20 μCi/mmole), 5 μg/ml inorganic pyrophosphatase, 1 μM BSA, 10 μM of active in vitro transcribed tRNA^Leu and enzymes in the range of 2–8 nM. Reactions were pre-incubated with or without substrate and/or inhibitor and then carried out at 28 °C (37 °C-LeuRSHp). Aliquots of the reaction (5–10 μl) were quenched on 3 mM filter pads (Whatman, GE Healthcare) presoaked with 5% trichloroacetic acid (TCA). The pads were washed thrice with 5% TCA and 90% ethanol at 4 °C and then dried. The amount of Leu-tRNA^Leu was then quantified using scintillation counting. Each reaction was performed in triplicate and analyzed using Kaleidagraph (for Km and kcat determinations) or GraphPad Prism software (for IC50 determination).
Series [5] has as its target T2, LeuRSAt. Put plainly: Isothermal titration calorimetry, LeuRSAt. The settings on record: ITC, Leu-AMS binding to LeuRSAt. Set-up: species or system A. tumefaciens. On the procedure: (§2) Typically, about 4–8 μM active protein solution and a 10-fold higher ligand concentration were prepared in buffer containing 50 mM HEPES (pH 7.4), 20 mM KCl 10 mM MgCl2 and 1 mM β-ME. The titrations were carried out in triplicate at 28 °C. The data was then analyzed using Origin software (version 7) and fitted to a one-site or a two-site binding model to obtain the binding affinity (Kd), stoichiometry (N) and enthalpy (ΔH) for each complex.
(ITC needs no label: the signal is the heat of the interaction.)

Series [6] has as its target T1, wt AgnB2 (LeuRS). Put plainly: Isothermal titration calorimetry, wt AgnB2. It counts as binding, Agrobacterium radiobacter K84. Conditions: ITC, ligand binding to AgnB2 alone, 28 °C, pH 7.4; read-out: Kd. The procedure: as §2
Series [7] concerns CC(C)C[C@H](N)C(=O)O. Put plainly: ATP/PPi exchange assay (amino acid activation), LeuRSAt. It counts as biochemical, A. tumefaciens. The settings on record: other: ATP-PPi exchange, substrate, 28 °C, pH 7.4. On the procedure:
as §1

The target in series [8] is T3, AgnB2 (TM84-resistant leucyl-tRNA synthetase) (Agrobacterium radiobacter K84 (plasmid pAgK84)) (UniProt B9JQP8).
T3 sequence: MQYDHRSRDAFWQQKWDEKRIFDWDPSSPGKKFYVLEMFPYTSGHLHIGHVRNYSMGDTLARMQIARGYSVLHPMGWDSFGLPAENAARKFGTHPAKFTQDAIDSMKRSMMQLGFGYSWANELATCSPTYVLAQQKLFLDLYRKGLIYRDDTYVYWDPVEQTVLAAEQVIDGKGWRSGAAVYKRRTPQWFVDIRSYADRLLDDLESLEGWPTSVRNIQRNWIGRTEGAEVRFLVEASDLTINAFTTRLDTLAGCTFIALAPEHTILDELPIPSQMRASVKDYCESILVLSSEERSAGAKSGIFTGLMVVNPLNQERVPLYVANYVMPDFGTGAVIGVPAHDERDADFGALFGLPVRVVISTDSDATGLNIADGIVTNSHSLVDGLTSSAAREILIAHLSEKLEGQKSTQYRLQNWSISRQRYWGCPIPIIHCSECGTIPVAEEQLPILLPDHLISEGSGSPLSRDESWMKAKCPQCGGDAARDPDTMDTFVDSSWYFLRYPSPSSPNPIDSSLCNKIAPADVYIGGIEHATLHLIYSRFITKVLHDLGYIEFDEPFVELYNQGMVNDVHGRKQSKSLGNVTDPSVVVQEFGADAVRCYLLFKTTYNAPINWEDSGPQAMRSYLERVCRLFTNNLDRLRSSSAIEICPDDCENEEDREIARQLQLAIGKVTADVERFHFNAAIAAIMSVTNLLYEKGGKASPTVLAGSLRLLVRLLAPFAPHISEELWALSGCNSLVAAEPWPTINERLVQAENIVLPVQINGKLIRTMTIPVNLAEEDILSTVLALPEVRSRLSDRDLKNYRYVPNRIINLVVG
Put plainly: ITC.

The test system of series [9] is CC(C)C[C@H](N)C(=O)O. Put plainly: purified protein, by the assay type. The settings on record: substrate, 28 °C, pH 7.4.
Where [10] appears, read: aminoacylation, substrate, 28 °C.

What is called Km is the substrate concentration at which the rate is half of its maximum. As a reminder, the kcat is the number of substrate molecules converted per active site and unit of time at saturation. Usually Kd stands for a measure of binding affinity in units of concentration.

For the compound `Nc1ncnc2c1ncn2[C@@H]1O[C@H](COP(=O)(O)OP(=O)(O)OP(=O)(O)O)[C@@H](O)[C@H]1O` [ATP], the Km in [1] (ATP-PPi exchange, substrate) was 1.05 ± 0.14 mM; in series [2] (ATP-PPi exchange, substrate) it was 357 ± 22 µM; in series [3] it was 396 ± 83 µM; in series [4] (setting [10]), 95.4 ± 18.3 µM. Further, the kcat in series [1] (ATP-PPi exchange, substrate) is 67 ± 8.9 s⁻¹; in [2] (ATP-PPi exchange, substrate), 87 ± 1.5 s⁻¹; in series [3] it was 0.33 ± 0.02 s⁻¹; in series [4] (setting [10]), 0.43 ± 0.02 s⁻¹.
In the case of `CC(C)CC(N)C(=O)NS(=O)(=O)OCC1OC(n2cnc3c(N)ncnc32)C(O)C1O` (stereo not shown) [Leu-AMS, reference compound], the “inhibition of amino acid activation (Leu-AMP formation)” value in [1] (25 nM Leu-AMS, 1 nM enzyme) is reported as “potently inhibits”. In addition, the “inhibition of Leu-AMP formation” value in [2] (25 nM Leu-AMS, 1 nM enzyme) is “potently inhibits”. Further, the results for the dissociation constant Kd in series [5] and in series [6] were 1.6 nM and 4.4 nM, respectively. Further, in [4] (20 nM Leu-AMS, 2 nM wt AgnB2, 28 °C), the “inhibition of overall aminoacylation reaction” value is on record as “potently inhibited”.
`CC(C)C[C@H](N)C(=O)O` [Leucine]: in series [3], the Michaelis-Menten constant (Km) is 38 ± 3.2 µM and the kcat was 0.38 ± 0.01 s⁻¹.
On to LeuRSAt (Agrobacterium fabrum str. C58), for which, in series [7], the Km amounted to 9.7 ± 0.7 µM and the turnover number (kcat) was 85 ± 1.6 s⁻¹.
The compound tRNALeu (agrobacterial) came in with a Kd in [8] of 310 nM.
Regarding “wt AgnB2 (LeuRS) (Rhizobium rhizogenes K84)”, in [9] (other: ATP-PPi exchange), the Michaelis constant (Km) was determined as 12 ± 2 µM and the turnover number (kcat) was determined as 73 ± 3.6 s⁻¹. For the same compound, in series [9] (other: aminoacylation), the Km stood at 28.7 ± 7.3 µM and the kcat worked out at 0.35 ± 0.03 s⁻¹.
